# From patent publication US10487129B2, “Stabilized insulinotropic peptides and methods of use” (Dana-Farber Cancer Institute, Inc., priority 2010, dated 2019)
# Positions of bridges follow the written chain, without caps; N, C: chain ends. Non-standard residues stand in square brackets, D forms with d. Residues, ends and D or L forms follow the SMILES beside them. No end group written: not given here. S5 = C=CCCC[C@](C)(N)C(=O)O; Nle = CCCC[C@H](N)C(=O)O
# Key:
# [1] = Circular dichroism thermal unfolding, 5-83° C.; assay type: physicochemical
# pepsin = pepsin (Sus scrofa, UniProt P00791); test: in vitro; assay type: in vitro ADME; conditions: pH 2
# Experimental: In vitro proteolytic degradation of structured peptides was measured by LC/MS (Agilent 1200) using the following parameters: 20 μL injection, 0.6 mL flow rate, 15 min run time consisting of a gradient of water (0.1% formic acid) to 20-80% acetonitrile (0.075% formic acid) over 10 min, 4 min wash to revert to starting gradient conditions, and 0.5 min post-time. The DAD signal was set to 280 nm with an 8 nm bandwidth and MSD set to scan mode with one channel at (M+2H)/2, +1 mass units and the other at (M+3H)/3, +1 mass units. Integration of each MSD signal yielded areas under the curve of >10^8 counts. Reaction samples were composed of 5 μL peptide in DMSO (1 mM stock) and 195 μL of buffer consisting of 50 mM phosphate buffer pH 7.4 containing 2 mM CaCl2. Upon injection of the 0 hr time point sample, 2 μL of 50 ng/μL chymotrypsin (Sigma) was added and the amount of intact peptide quantitated by serial injection over time. An internal control of acetylated tryptophan carboxamide at a concentration of 100 μM was used to normalize each MSD data point. A plot of MSD area versus time yielded an exponential decay curve and half-lives were determined by nonlinear regression analysis using Prism software (GraphPad). The assay was also performed using trypsin and pepsin in their appropriate buffer conditions.
# chymotrypsin [2] = target: T1, chymotrypsin (Bos taurus, UniProt P00766); assay type: in vitro ADME; design: purchased Sigma; conditions: pH 7
# Source text: A major limitation of peptides as therapeutics is their susceptibility to rapid proteolytic degradation. […] One of the potential benefits of a covalent crosslinking strategy to enforce peptide α-helicity is shielding of the vulnerable amide bonds from proteolysis. Because proteases require that peptides adopt an extended conformation to hydrolyze amide bonds, the structural constraint afforded by the hydrocarbon staple can render crosslinked peptides protease-resistant.
# chymotrypsin [3] = target: T1, chymotrypsin; test: Chymotrypsin proteolysis of gp41-derived HIV-1 fusion inhibitor peptides
# Experimental: In vitro proteolytic degradation of structured peptides was measured by LC/MS (Agilent 1200) using the following parameters: 20 μL injection, 0.6 mL flow rate, 15 min run time consisting of a gradient of water (0.1% formic acid) to 20-80% acetonitrile (0.075% formic acid) over 10 min, 4 min wash to revert to starting gradient conditions, and 0.5 min post-time. The DAD signal was set to 280 nm with an 8 nm bandwidth and MSD set to scan mode with one channel at (M+2H)/2, +1 mass units and the other at (M+3H)/3, +1 mass units. […] Reaction samples were composed of 5 μL peptide in DMSO (1 mM stock) and 195 μL of buffer consisting of 50 mM phosphate buffer pH 7.4 containing 2 mM CaCl2. Upon injection of the 0 hr time point sample, 2 μL of 50 ng/μL chymotrypsin (Sigma) was added and the amount of intact peptide quantitated by serial injection over time. An internal control of acetylated tryptophan carboxamide at a concentration of 100 μM was used to normalize each MSD data point. A plot of MSD area versus time yielded an exponential decay curve and half-lives were determined by nonlinear regression analysis using Prism software (GraphPad). The assay was also performed using trypsin and pepsin in their appropriate buffer conditions.
# [4] = Circular dichroism melting of gp41 peptides; assay type: physicochemical; conditions: circular dichroism melting profile
# Experimental: The alpha-helicity of stapled modified polypeptides was compared to their unmodified counterparts by circular dichroism. CD spectra were obtained on an Aviv spectropolarimeter at 20° C. using the following standard measurement parameters: wavelength, 190-260 nm; step resolution, 0.5 nm; speed, 20 nm/sec; accumulations, 10; response, 1 sec; bandwidth, 1 nm; path length, 0.1 cm. The alpha-helical content of each peptide was calculated by dividing the mean residue ellipticity [θ]222obs by the reported [θ]222obs for a model helical peptide (Forood, B., E. J. Feliciano, and K. P. Nambiar, PNAS, 1993. 90(3): p. 838-842; J. Martin Scholtz, Biopolymers, 1991. 31(13): p. 1463-1470; Lawless, M. K., et al., Biochemistry, 1996. 35(42): p. 13697-13708) or using, for example, the Aviv machine using CDNN software developed by Brohm in order to deduce five different secondary structure fractions (helix, parallel and antiparallel beta-sheet, beta-turn and random coil). Protein Engineering, 1992. 5(3); p. 191-195. Thermal stability is assessed by acquiring circular dichroism spectra across a broad temperature range and determining the melting temperatures for each constrained peptide.
# [5] = test system: isolated pancreatic islets; test: Glucose-stimulated insulin release (GSIS) from isolated pancreatic islets; assay type: cell-based, mouse; conditions: 10 nM peptide, 1.67 mM to 16.7 mM glucose, 1 hour at 37° C., insulin ELISA
# Experimental: Stock solutions of SAH-Ex and SAH-GLP peptides were generated by dissolving the lyophilized powders in deionized water at 100 μM. The following treatment solutions were made for batch GSIS assays: 1.67 mM glucose, 16.7 mM glucose, 1.67 mM glucose+10 nM peptide, 16.7 mM glucose+10 nM peptide all in 1×KRB buffer, 2 mM CaCl2, 0.05% BSA. Islets isolated from wild-type mouse pancreas were washed 3 times with KRB buffer and 5 islets per experimental tube were incubated in KRB buffer containing 1.67 mM glucose for 30 min at 37° C. Islets were then pelleted and the buffer replaced with the treatment solutions listed above. Each experimental condition was examined in replicates of n=8. After 1 hour incubation at 37° C., islets were pelleted and the supernatants collected for glucose stimulated insulin release measurement. The pellets are solubilized to assess intracellular insulin content to normalize for cell number. Insulin was measured by ELISA using mouse insulin as a standard (Insulin ELISA Kit, cat. 80-INSMS-E01, ALPCO). For the insulin ELISA plots, there is a small increase in the amount of insulin released in response to escalation of the glucose dose from 1.67 mM to 16.7 mM.
# Sequence of pepsin (P00791 60-385): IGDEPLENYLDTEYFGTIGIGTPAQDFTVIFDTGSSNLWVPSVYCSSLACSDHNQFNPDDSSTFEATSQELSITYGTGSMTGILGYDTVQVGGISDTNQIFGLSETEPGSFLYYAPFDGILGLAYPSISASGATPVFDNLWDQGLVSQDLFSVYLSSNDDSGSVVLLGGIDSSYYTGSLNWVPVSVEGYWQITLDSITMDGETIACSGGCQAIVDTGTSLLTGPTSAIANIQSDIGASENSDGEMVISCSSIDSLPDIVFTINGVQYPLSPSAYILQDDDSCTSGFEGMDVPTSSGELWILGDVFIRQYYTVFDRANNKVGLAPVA
compound,measurement,setting,value
"CC[C@H](C)[C@H](NC(=O)[C@H](Cc1ccccc1)NC(=O)[C@H](CC(C)C)NC(=O)[C@H](CCCNC(=N)N)NC(=O)[C@@H](NC(=O)[C@H](C)NC(=O)[C@H](CCC(=O)O)NC(=O)[C@H](CCC(=O)O)NC(=O)[C@H](CCC(=O)O)NC(=O)[C@]1(C)CCCC=CCCC[C@](C)(NC(=O)[C@H](CC(=O)O)NC(=O)[C@H](CO)NC(=O)[C@@H](NC(=O)[C@H](Cc2ccccc2)NC(=O)[C@@H](NC(=O)CNC(=O)[C@H](CCC(=O)O)NC(=O)CNC(=O)[C@@H](N)Cc2c[nH]cn2)[C@@H](C)O)[C@@H](C)O)C(=O)N[C@@H](CO)C(=O)N[C@@H](CCCCN)C(=O)N[C@@H](CCC(N)=O)C(=O)N1)C(C)C)C(=O)N[C@@]1(C)CCCC=CCCC[C@@](C)(C(=O)NCC(=O)NCC(=O)N2CCC[C@H]2C(=O)N[C@@H](CO)C(=O)N[C@@H](CO)C(=O)NCC(=O)N[C@@H](C)C(=O)N2CCC[C@H]2C(=O)N2CCC[C@H]2C(=O)N2CCC[C@H]2C(=O)N[C@@H](CO)C(N)=O)NC(=O)[C@H](CCCCN)NC(=O)[C@H](CC(C)C)NC(=O)[C@H](Cc2c[nH]c3ccccc23)NC1=O (single isomer, unassigned) [SAH-Ex(A, B)]",slope of temperature melt line,[1],flatter sloped line
same,enhancement in pepsin resistance compared to the template peptide,pepsin,13 fold
same,half-life at 25 μM,pepsin,2.87 h
same,enhancement in chymotrypsin resistance compared to the singly stapled peptides,chymotrypsin [2],up to 4 fold
same,enhancement in chymotrypsin resistance compared to the template peptide,chymotrypsin [2],8 fold
CCCC[C@H](NC(=O)[C@H](Cc1c[nH]c2ccccc12)NC(=O)[C@@H](NC(=O)[C@@H](N)CCCC)[C@@H](C)O)C(=O)N[C@@H](CCC(=O)O)C(=O)N[C@@H](Cc1c[nH]c2ccccc12)C(=O)N[C@@H](CC(=O)O)C(=O)N[C@@H](CCCNC(=N)N)C(=O)N[C@@H](CCC(=O)O)C(=O)N[C@H](C(=O)N[C@@H](CC(N)=O)C(=O)N[C@@H](CC(N)=O)C(=O)N[C@@H](Cc1ccc(O)cc1)C(=O)N[C@H](C(=O)N[C@@H](CO)C(=O)N[C@@H](CC(C)C)C(=O)N[C@H](C(=O)N[C@@H](Cc1c[nH]cn1)C(=O)N[C@@H](CO)C(=O)N[C@@H](CC(C)C)C(=O)N[C@H](C(=O)N[C@@H](CCC(=O)O)C(=O)N[C@@H](CCC(=O)O)C(=O)N[C@@H](CO)C(=O)N[C@@H](CCC(N)=O)C(=O)N[C@@H](CC(N)=O)C(=O)N[C@@H](CCC(N)=O)C(=O)N[C@@]1(C)CCCC=CCCC[C@@](C)(C(=O)N[C@@H](CCC(N)=O)C(=O)N[C@@H](CCC(=O)O)C(=O)N[C@@H](CC(C)C)C(=O)N[C@@H](CC(C)C)C(=O)N[C@@H](CCC(=O)O)C(N)=O)NC(=O)[C@H](CC(N)=O)NC(=O)[C@H](CCCCN)NC(=O)[C@H](CCC(=O)O)NC1=O)[C@@H](C)CC)[C@@H](C)CC)[C@@H](C)O)[C@@H](C)CC [SAH-gp41(626-662)(B)] (H-[Nle]TW[Nle]EWDREINNYTSLIHSLIEESQNQ[S5]EKN[S5]QELLE-NH2; staple 28-32; N-terminus assumed),half-life,chymotrypsin [3],1.28 h
"C=CCCC[C@](C)(NC(=O)[C@H](CC(N)=O)NC(=O)[C@H](CCCCN)NC(=O)[C@H](CCC(=O)O)NC(=O)[C@](C)(CCCC=C)NC(=O)[C@H](CCC(N)=O)NC(=O)[C@H](CC(N)=O)NC(=O)[C@H](CCC(N)=O)NC(=O)[C@H](CO)NC(=O)[C@H](CCC(=O)O)NC(=O)[C@H](CCC(=O)O)NC(=O)[C@@H](NC(=O)[C@H](CC(C)C)NC(=O)[C@H](CO)NC(=O)[C@H](Cc1c[nH]cn1)NC(=O)[C@@H](NC(=O)[C@H](CC(C)C)NC(=O)[C@H](CO)NC(=O)[C@@H](NC(=O)[C@H](Cc1ccc(O)cc1)NC(=O)[C@H](CC(N)=O)NC(=O)[C@H](CC(N)=O)NC(=O)[C@@H](NC(=O)[C@H](CCC(=O)O)NC(=O)[C@](C)(CCCC=C)NC(=O)[C@H](CC(=O)O)NC(=O)[C@H](Cc1c[nH]c2ccccc12)NC(=O)[C@H](CCC(=O)O)NC(=O)[C@](C)(CCCC=C)NC(=O)[C@H](Cc1c[nH]c2ccccc12)NC(=O)[C@@H](NC(=O)[C@@H](N)CCCC)[C@@H](C)O)[C@@H](C)CC)[C@@H](C)O)[C@@H](C)CC)[C@@H](C)CC)C(=O)N[C@@H](CCC(N)=O)C(=O)N[C@@H](CCC(=O)O)C(=O)N[C@@H](CC(C)C)C(=O)N[C@@H](CC(C)C)C(=O)N[C@@H](CCC(=O)O)C(N)=O [UAH-gp41(626-662)(A,B)] (H-[Nle]TW[S5]EWD[S5]EINNYTSLIHSLIEESQNQ[S5]EKN[S5]QELLE-NH2; N-terminus assumed)",half-life,chymotrypsin [3],0.6 h
same,"protection from chymotrypsin proteolysis, result in words",chymotrypsin [3],does not confer significant protection
same,Tm,[4],27 °C
"GLP1: Glucagon-like Peptide-1, insulin secretagogue (HAEGTFTSDVSSYLEGQAAKEFIAWLVKGR; ends and bridges not checked; UniProt P01275 98-127, looked up)",glucose-stimulated insulin release (GSIS),[5],substantial increase in GSIS
